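All cell lines were grown in 96-well plates and treated with compound for 48 hours. Here, GI50 denotes the concentration required for 50% inhibition of growth. The concentration for full growth arrest is given as TGI.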
Legend:
Assay in all cases: NCI-60 cell line screen, 48 h; in the data active means GI50 below about 0.43 µM; inactive means the rest
[1] = test system: BT-549 breast
[2] = test system: A549 NSCLC
[3] = test system: SN12C renal
[4] = test system: HCC-2998 colon
[5] = test system: IGROV1 ovarian
[6] = test system: U251 CNS
[7] = test system: EKVX NSCLC
[8] = test system: HS 578T breast
[9] = test system: UO-31 renal
[10] = test system: COLO 205 colon
[11] = test system: HCT-116 colon
[12] = test system: CAKI-1 renal
[13] = test system: OVCAR-3 ovarian
[14] = test system: HCT-15 colon
[15] = test system: SNB-75 CNS
[16] = test system: T-47D breast
[17] = test system: SR leukemia
[18] = test system: NCI-H23 lung
[19] = test system: M14 melanoma
[20] = test system: SF-539 CNS
[21] = test system: MDA-MB-435
[22] = test system: HT29 colon
[23] = test system: SF-268 CNS
[24] = test system: MCF7 breast
[25] = test system: KM12 colon
[26] = test system: K-562 leukemia
[27] = test system: SK-MEL-28 melanoma
[28] = test system: RPMI-8226 leukemia
[29] = test system: CCRF-CEM leukemia
[30] = test system: PC-3 prostate
[31] = test system: UACC-62 melanoma
[32] = test system: LOX IMVI melanoma
[33] = test system: NCI-H522 lung
[34] = test system: DU-145 prostate
[35] = test system: OVCAR-4 ovarian
[36] = test system: RXF 393 renal
[37] = test system: NCI/ADR-RES ovarian
[38] = test system: TK-10 renal
[39] = test system: 786-0 renal
[40] = test system: OVCAR-8 ovarian
[41] = test system: MDA-MB-231 breast
[42] = test system: NCI-H460 lung
[43] = test system: UACC-257 melanoma
[44] = test system: HOP-92 NSCLC
[45] = test system: A498 renal
[46] = test system: SW-620 colon
[47] = test system: ACHN renal
[48] = test system: SF-295 CNS
[49] = test system: MDA-N
[50] = test system: MOLT-4 leukemia
[51] = test system: OVCAR-5 ovarian
[52] = test system: SNB-19 CNS
[53] = test system: SK-MEL-2 melanoma
[54] = test system: SK-OV-3 ovarian
[55] = test system: NCI-H226 lung
[56] = test system: SK-MEL-5 melanoma
[57] = test system: MALME-3M melanoma
[58] = test system: HOP-62 NSCLC
[59] = test system: HL-60(TB) leukemia

O=c1nc2n(CCO)c(-c3ccccc3)c(-c3ccccc3)nc-2c(=O)[nH]1
> 100 µM: TGI [1] | TGI [2] | TGI [3] | TGI [4] | TGI [5] | TGI [6] | TGI [7] | TGI [8] | TGI [9] | TGI [10] | TGI [11] | TGI [12] | TGI [13] | TGI [14] | TGI [15] | TGI [16] | TGI [17] | TGI [18] | TGI [19] | TGI [20] | TGI [21] | TGI [22] | TGI [23] | TGI [24] | TGI [25] | TGI [26] | TGI [27] | TGI [28] | TGI [29] | TGI [30] | TGI [31] | TGI [32] | TGI [33] | TGI [34] | TGI [35] | TGI [36] | TGI [37] | TGI [38] | TGI [39] | TGI [40] | TGI [41] | TGI [42] | TGI [43] | TGI [44] | TGI [45] | TGI [46] | TGI [47] | TGI [48] | TGI [49] | TGI [50] | TGI [51] | TGI [52] | TGI [53] | TGI [54] | TGI [55] | TGI [56] | TGI [57] | TGI [58]

CSc1nc(=S)[nH]c2n[nH]c(C)c12
> 100 µM: TGI [1] | TGI [2] | TGI [3] | TGI [4] | TGI [6] | TGI [7] | TGI [8] | TGI [9] | TGI [10] | TGI [11] | TGI [12] | TGI [13] | TGI [14] | TGI [15] | TGI [16] | TGI [17] | TGI [18] | TGI [19] | TGI [20] | TGI [21] | TGI [22] | TGI [23] | TGI [24] | TGI [25] | TGI [26] | TGI [27] | TGI [28] | TGI [29] | TGI [30] | TGI [31] | TGI [32] | TGI [33] | TGI [34] | TGI [35] | TGI [36] | TGI [37] | TGI [38] | TGI [39] | TGI [40] | TGI [41] | TGI [42] | TGI [43] | TGI [45] | TGI [46] | TGI [49] | TGI [59] | TGI [50] | TGI [51] | TGI [52] | TGI [53] | TGI [54] | TGI [55] | TGI [56] | TGI [57]

Cc1[nH]c2ncn(/N=C/c3ccccc3)c(=N)c2c1Cc1ccccc1
> 100 µM: TGI [1] | TGI [2] | TGI [3] | TGI [4] | TGI [5] | TGI [6] | TGI [7] | TGI [8] | TGI [9] | TGI [10] | TGI [11] | TGI [12] | TGI [13] | TGI [14] | TGI [15] | TGI [16] | TGI [18] | TGI [19] | TGI [20] | TGI [21] | TGI [22] | TGI [23] | TGI [24] | TGI [25] | TGI [26] | TGI [27] | TGI [28] | TGI [29] | TGI [30] | TGI [31] | TGI [32] | TGI [34] | TGI [35] | TGI [36] | TGI [37] | TGI [38] | TGI [39] | TGI [40] | TGI [41] | TGI [42] | TGI [43] | TGI [44] | TGI [45] | TGI [46] | TGI [47] | TGI [48] | TGI [49] | TGI [59] | TGI [50] | TGI [51] | TGI [52] | TGI [53] | TGI [54] | TGI [55] | TGI [58]

N#Cc1cnn2c1n[n+]([O-])c1ccc(Cl)cc12
> 32.3 µM: TGI [37]
> 40.3 µM: TGI [23]
19.8 µM: TGI [57]
17.6 µM: TGI [50]
3.91 µM: TGI [26]
26.5 µM: TGI [42]
49.7 µM: TGI [55]
> 42.9 µM: TGI [40]
4.03 µM: TGI [35]
32.8 µM: TGI [6]
31.8 µM: TGI [19]
17.2 µM: TGI [53]
26.4 µM: TGI [21]
8.51 µM: TGI [32]
3.46 µM: TGI [4]
> 79.8 µM: TGI [2]
> 24.7 µM: TGI [8]
5.21 µM: TGI [44]
6.52 µM: TGI [59]
42.4 µM: TGI [36]
23 µM: TGI [43]
44.5 µM: TGI [20]
23.8 µM: TGI [54]
38.6 µM: TGI [58]
35.5 µM: TGI [41]
46 µM: TGI [45]
2.53 µM: TGI [12]
8.53 µM: TGI [5]
15.4 µM: TGI [15]
37.6 µM: TGI [16]
10.5 µM: TGI [47]
21.7 µM: TGI [9] | TGI [22]
> 76.8 µM: TGI [51]
4.36 µM: TGI [14]
9.09 µM: TGI [31]
12.2 µM: TGI [18]
20.7 µM: TGI [3]
25 µM: TGI [56]
10.1 µM: TGI [52]
27.7 µM: TGI [27]
31.7 µM: TGI [10]
25.4 µM: TGI [1]
9.08 µM: TGI [13]
> 100 µM: TGI [24] | TGI [25] | TGI [28] | TGI [38] | TGI [39]
4.34 µM: TGI [29]
28.5 µM: TGI [34]
7.24 µM: TGI [7]
32.1 µM: TGI [30]
22.7 µM: TGI [11] | TGI [49]
3.81 µM: TGI [33]
29.6 µM: TGI [46] | TGI [48]

CN(C)c1ccc(C(C#N)N2CCCN(C(C#N)c3ccc(N(C)C)cc3)C2c2ccc(N(C)C)cc2)cc1 (stereo not drawn)
> 100 µM: TGI [1] | TGI [2] | TGI [3] | TGI [5] | TGI [6] | TGI [7] | TGI [8] | TGI [9] | TGI [10] | TGI [11] | TGI [12] | TGI [13] | TGI [14] | TGI [15] | TGI [16] | TGI [17] | TGI [18] | TGI [19] | TGI [20] | TGI [21] | TGI [22] | TGI [23] | TGI [24] | TGI [25] | TGI [26] | TGI [27] | TGI [28] | TGI [29] | TGI [30] | TGI [31] | TGI [32] | TGI [33] | TGI [34] | TGI [35] | TGI [36] | TGI [37] | TGI [38] | TGI [39] | TGI [40] | TGI [41] | TGI [43] | TGI [44] | TGI [45] | TGI [46] | TGI [47] | TGI [48] | TGI [49] | TGI [59] | TGI [50] | TGI [51] | TGI [52] | TGI [53] | TGI [54] | TGI [55] | TGI [56] | TGI [57] | TGI [58]

CC(=O)OCC(OC(C)=O)C(OC(C)=O)C(/C=N/N(C(C)=O)S(=O)(=O)c1ccc(/C=C2\NC(=O)NC2=O)cc1)OC(C)=O (stereo not drawn)
> 100 µM: TGI [1] | TGI [2] | TGI [3] | TGI [4] | TGI [5] | TGI [6] | TGI [7] | TGI [8] | TGI [9] | TGI [10] | TGI [11] | TGI [12] | TGI [13] | TGI [14] | TGI [15] | TGI [16] | TGI [17] | TGI [18] | TGI [19] | TGI [20] | TGI [21] | TGI [22] | TGI [23] | TGI [24] | TGI [26] | TGI [28] | TGI [29] | TGI [30] | TGI [31] | TGI [34] | TGI [35] | TGI [36] | TGI [37] | TGI [38] | TGI [39] | TGI [40] | TGI [41] | TGI [42] | TGI [43] | TGI [45] | TGI [46] | TGI [47] | TGI [48] | TGI [49] | TGI [50] | TGI [51] | TGI [52] | TGI [53] | TGI [54] | TGI [55] | TGI [56] | TGI [57] | TGI [58]
inactive: GI50 [28] 0.583 µM

CC(C)=CCC/C(C)=C/Cc1cc(/C=C/c2cc(O)c(CC=C(C)C)c(O)c2)cc(O)c1O
23.8 µM: TGI [41]
2.89 µM: TGI [9]
8.65 µM: TGI [36]
13.4 µM: TGI [24]
20.6 µM: TGI [45]
14.9 µM: TGI [40]
6.81 µM: TGI [5]
13.6 µM: TGI [22]
5.86 µM: TGI [4]
24.4 µM: TGI [58]
21.5 µM: TGI [54]
10.4 µM: TGI [26]
17.5 µM: TGI [2] | TGI [27]
0.38 µM: TGI [33]
16 µM: TGI [19]
13.3 µM: TGI [1] | TGI [37]
33.4 µM: TGI [10]
15.4 µM: TGI [51]
14.7 µM: TGI [25]
7.57 µM: TGI [15]
7.1 µM: TGI [35]
12.2 µM: TGI [21]
23 µM: TGI [55]
12.1 µM: TGI [49]
18.6 µM: TGI [57]
26.8 µM: TGI [8]
16.9 µM: TGI [12]
13.8 µM: TGI [20]
4.54 µM: TGI [16]
14.5 µM: TGI [46]
15.6 µM: TGI [44]
14.2 µM: TGI [38]
9.88 µM: TGI [31]
9.4 µM: TGI [53]
3.68 µM: TGI [28]
11.2 µM: TGI [18]
16.6 µM: TGI [52]
7.46 µM: TGI [7]
12.3 µM: TGI [23]
5.88 µM: TGI [56]
26.6 µM: TGI [34]
5.83 µM: TGI [13]
9.2 µM: TGI [42]
11.8 µM: TGI [50]
3.19 µM: TGI [47]
7 µM: TGI [32]
2.79 µM: TGI [59]
17 µM: TGI [39]
3.95 µM: TGI [3]
11.9 µM: TGI [11] | TGI [14] | TGI [30]
18.2 µM: TGI [48]
5.2 µM: TGI [43]
5 µM: TGI [6]
